Test system: SARS-CoV-2 (USA_WA1/2020)
Test: Antiviral Activity from SARS-CoV-2 Infection (cytopathic effect, Cell Titer-Glo)
Type: cell-based
Settings: Severe acute respiratory syndrome coronavirus 2, Vero C1008, 72 h, VeroE6 cells enriched for hACE2, MOI 0.002, 3-day incubation; tested alone or with P-gp inhibitor CP-100356 2 μM (table does not say which); read-out: Geometric Mean EC50

Row | SMILES | EC50 [nM]
1 | CC(C)[C@H](NC(=O)C(F)(F)F)C(=O)N1C[C@H]2[C@@H]([C@H]1C(=O)N[C@@H](C[C@@H]1CCNC1=O)C(=O)COc1ccc(F)nc1)C2(C)C [Example 31, (1R,2S,5S)-N-{(2S)-4-[(6-fluoropyridin-3-yl)oxy]-3-oxo-1-[(3S)-2-oxopyrrolidin-3-yl]butan-2-yl}-6,6-dimethyl-3-[N-(trifluoroacetyl)-L-valyl]-3-azabicyclo[3.1.0]hexane-2-carboxamide] | 167
2 | Cc1ccc(OCC(=O)[C@H](C[C@@H]2CCNC2=O)NC(=O)[C@@H]2[C@@H]3[C@H](CN2C(=O)[C@@H](NC(=O)C(F)(F)F)C(C)(C)C)C3(C)C)cn1 [Example 19, (1R,2S,5S)-6,6-dimethyl-N-{(2S)-4-[(6-methylpyridin-3-yl)oxy]-3-oxo-1-[(3S)-2-oxopyrrolidin-3-yl]butan-2-yl}-3-[3-methyl-N-(trifluoroacetyl)-L-valyl]-3-azabicyclo[3.1.0]hexane-2-carboxamide] | 37.2
3 | CC(C)(C)[C@H](NC(=O)C(F)(F)F)C(=O)N1C[C@H]2[C@@H]([C@H]1C(=O)N[C@@H](C[C@@H]1CCNC1=O)C(=O)COc1ccccc1)C2(C)C [Example 20, (1R,2S,5S)-6,6-dimethyl-3-[3-methyl-N-(trifluoroacetyl)-L-valyl]-N-{(2S)-3-oxo-1-[(3S)-2-oxopyrrolidin-3-yl]-4-phenoxybutan-2-yl}-3-azabicyclo[3.1.0]hexane-2-carboxamide] | 14.7
4 | CCc1cc(OCC(=O)[C@H](C[C@@H]2CCNC2=O)NC(=O)[C@@H]2[C@@H]3[C@H](CN2C(=O)[C@@H](NC(=O)C(F)(F)F)C(C)(C)C)C3(C)C)n(C)n1 [Example 26, (1R,2S,5S)-N-{(2S)-4-[(3-ethyl-1-methyl-1H-pyrazol-5-yl)oxy]-3-oxo-1-[(3S)-2-oxopyrrolidin-3-yl]butan-2-yl}-6,6-dimethyl-3-[3-methyl-N-(trifluoroacetyl)-L-valyl]-3-azabicyclo[3.1.0]hexane-2-carboxamide] | 171
5 | Cc1ccc(OCC(=O)[C@H](C[C@@H]2CCNC2=O)NC(=O)[C@@H]2[C@@H]3[C@H](CN2C(=O)[C@@H](NC(=O)C(F)(F)F)C(C)C)C3(C)C)cn1 [Example 18, (1R,2S,5S)-6,6-dimethyl-N-{(2S)-4-[(6-methylpyridin-3-yl)oxy]-3-oxo-1-[(3S)-2-oxopyrrolidin-3-yl]butan-2-yl}-3-[N-(trifluoroacetyl)-L-valyl]-3-azabicyclo[3.1.0]hexane-2-carboxamide] | 114
6 | CCn1nc(C)cc1OCC(=O)[C@H](C[C@@H]1CCNC1=O)NC(=O)[C@@H]1[C@@H]2[C@H](CN1C(=O)[C@@H](NC(=O)C(F)(F)F)C(C)C)C2(C)C [Example 43, (1R,2S,5S)-N-{(2S)-4-[(1-ethyl-3-methyl-1H-pyrazol-5-yl)oxy]-3-oxo-1-[(3S)-2-oxopyrrolidin-3-yl]butan-2-yl}-6,6-dimethyl-3-[N-(trifluoroacetyl)-L-valyl]-3-azabicyclo[3.1.0]hexane-2-carboxamide] | 642
7 | CCc1cc(OCC(=O)[C@H](C[C@@H]2CCNC2=O)NC(=O)[C@@H]2[C@@H]3[C@H](CN2C(=O)[C@@H](NC(=O)C(F)(F)F)C(C)C)C3(C)C)n(C)n1 [Example 45, (1R,2S,5S)-N-{(2S)-4-[(3-ethyl-1-methyl-1H-pyrazol-5-yl)oxy]-3-oxo-1-[(3S)-2-oxopyrrolidin-3-yl]butan-2-yl}-6,6-dimethyl-3-[N-(trifluoroacetyl)-L-valyl]-3-azabicyclo[3.1.0]hexane-2-carboxamide] | 384
8 | CC(C)[C@H](NC(=O)C(F)(F)F)C(=O)N1C[C@H]2[C@@H]([C@H]1C(=O)N[C@@H](C[C@@H]1CCNC1=O)C(=O)COc1nnc(C(C)(C)C)n1C)C2(C)C [Example 78, (1R,2S,5S)-N-{(2S)-4-[(5-tert-butyl-4-methyl-4H-1,2,4-triazol-3-yl)oxy]-3-oxo-1-[(3S)-2-oxopyrrolidin-3-yl]butan-2-yl}-6,6-dimethyl-3-[N-(trifluoroacetyl)-L-valyl]-3-azabicyclo[3.1.0]hexane-2-carboxamide] | 7370
9 | COCC(=O)[C@H](C[C@@H]1CCNC1=O)NC(=O)[C@@H]1CC(C(C)(C)C)CCN1C(=O)[C@@H](NS(=O)(=O)C(F)(F)F)C(C)C (single isomer, unassigned) [Example 15, (2R*,4S*)-4-tert-butyl-N-{(2S)-4-methoxy-3-oxo-1-[(3S)-2-oxopyrrolidin-3-yl]butan-2-yl}-1-[N-(trifluoromethanesulfonyl)-L-valyl]piperidine-2-carboxamide, DIAST-1] | 272
10 | COC(=O)N[C@H](C(=O)N1C[C@H]2[C@@H]([C@H]1C(=O)N[C@@H](C[C@@H]1CCNC1=O)C(=O)COc1cc(C(F)(F)F)nn1C)C2(C)C)C(C)C [Example 36, methyl {(2S)-1-[(1R,2S,5S)-6,6-dimethyl-2-({(2S)-4-{[1-methyl-3-(trifluoromethyl)-1H-pyrazol-5-yl]oxy}-3-oxo-1-[(3S)-2-oxopyrrolidin-3-yl]butan-2-yl}carbamoyl)-3-azabicyclo[3.1.0]hexan-3-yl]-3-methyl-1-oxobutan-2-yl}carbamate] | 256
11 | CCc1cc(OCC(=O)[C@H](C[C@@H]2CCNC2=O)NC(=O)[C@@H]2[C@@H]3[C@H](CN2C(=O)[C@@H](NC(=O)OC)C(C)(C)C)C3(C)C)n(C)n1 [Example 37, methyl {(2S)-1-[(1R,2S,5S)-2-({(2S)-4-[(3-ethyl-1-methyl-1H-pyrazol-5-yl)oxy]-3-oxo-1-[(3S)-2-oxopyrrolidin-3-yl]butan-2-yl}carbamoyl)-6,6-dimethyl-3-azabicyclo[3.1.0]hexan-3-yl]-3,3-dimethyl-1-oxobutan-2-yl}carbamate] | 900

Same assay, conditions: VeroE6 cells enriched for hACE2, MOI 0.002, 3-day incubation; tested alone or with P-gp inhibitor CP-100356 2 μM (table does not say which); read-out: Geometric Mean EC50

Row | SMILES | EC50 [nM]
12 | CC(C)[C@H](NS(C)(=O)=O)C(=O)N1CCC(C(F)(F)F)C[C@H]1C(=O)N[C@@H](C[C@@H]1CCNC1=O)C(=O)COc1ccc(F)cc1F (single isomer, unassigned) [Example 71, (2R*,4S*)-N-{(2S)-4-(2,4-difluorophenoxy)-3-oxo-1-[(3S)-2-oxopyrrolidin-3-yl]butan-2-yl}-1-[N-(methanesulfonyl)-L-valyl]-4-(trifluoromethyl)piperidine-2-carboxamide, DIAST-1] | 8310
13 | CC(C)[C@H](NS(C)(=O)=O)C(=O)N1CCC(C(F)(F)F)C[C@H]1C(=O)N[C@@H](C[C@@H]1CCNC1=O)C(=O)COc1ccc(F)cc1F (single isomer, unassigned) [Example 41, (2R*,4S*)-N-{(2S)-4-(2,4-difluorophenoxy)-3-oxo-1-[(3S)-2-oxopyrrolidin-3-yl]butan-2-yl}-1-[N-(methanesulfonyl)-L-valyl]-4-(trifluoromethyl)piperidine-2-carboxamide, DIAST-2] | 224

Biological target: T1, SARS-CoV-2 3CL protease (Severe acute respiratory syndrome coronavirus 2, UniProt P0DTD1)
T1 construct: measures the activity of full-length SARS-CoV-2 3CL protease
Test: SARS-CoV-2 Coronavirus 3C Protease FRET Assay
Type: biochemical
Settings: Examples 14-78 and 114 (second head of Table 2); Morrison equation fit, 15 nM enzyme, 25 μM peptide substrate; read-out: Geometric Mean Ki (nM) IC50

Row | SMILES | Ki [nM]
14 | CC(C)(C)[C@H](NS(=O)(=O)C(F)(F)F)C(=O)N1C[C@H]2[C@@H]([C@H]1C(=O)N[C@@H](C[C@@H]1CCNC1=O)C(=O)COc1ccc(F)c(F)c1)C2(C)C [Example 114, (1R,2S,5S)-N-{(2S)-4-(3,4-difluorophenoxy)-3-oxo-1-[(3S)-2-oxopyrrolidin-3-yl]butan-2-yl}-6,6-dimethyl-3-[3-methyl-N-(trifluoromethanesulfonyl)-L-valyl]-3-azabicyclo[3.1.0]hexane-2-carboxamide] | 2.53

Reference: patent US20250304559A1, “Ether-Linked Antiviral Compounds” (Pfizer Inc., priority 2021, published 2025)
